Counter-ions that a name gives are not always drawn.
Row | Structure (SMILES) | melting point
1 | O=S(=O)(c1cccc(Cl)c1)c1c[nH]c2ccc(N3CCNCC3)cc12 [compound 110, 3-(3-chloro-benzenesulfonyl)-5-piperazin-1-yl-1H-indole] | 192 to 197 °C
2 | Clc1cccc(Sc2c[nH]c3ccc(N4CCNCC4)cc23)c1Cl | 255.1 to 255.5 °C
3 | O=S(=O)(c1cccc(Cl)c1Cl)c1c[nH]c2ccc(N3CCNCC3)cc12 [compound 202, 3-(2,3-dichloro-benzenesulfonyl)-5-piperazin-1-yl-1H-indole] | > 300 °C
4 | O=S(=O)(c1cc(Cl)cc(Cl)c1)c1c[nH]c2ccc(N3CCNCC3)cc12 [compound 205, 3-(3,5-dichloro-benzenesulfonyl)-5-piperazin-1-yl-1H-indole] | > 300 °C
5 | O=S(=O)(c1ccc(Cl)c(Cl)c1)c1c[nH]c2c(N3CCNCC3)cccc12 [compound 103, 3-(3,4-dichloro-benzenesulfonyl)-7-piperazin-1-yl-1H-indole] | 290 °C
6 | O=S(=O)(c1ccccn1)c1c[nH]c2c(N3CCNCC3)cccc12 | 198 to 199 °C
7 | O=S(=O)(c1ccc(C(F)(F)F)cc1)c1c[nH]c2ccc(N3CCNCC3)cc12 [compound 203, 5-piperazin-1-yl-3-(4-trifluoromethyl-benzenesulfonyl)-1H-indole] | 274.9 to 280.9 °C
8 | Cn1cc(S(=O)(=O)c2ccccn2)c2cccc(N3CCNCC3)c21 [compound 402, 1-methyl-7-piperazin-1-yl-3-(pyridine-2-sulfonyl)-1H-indole] | 297 to 298 °C
9 | O=S(=O)(c1cccc(Cl)c1)c1c[nH]c2c(N3CCNCC3)cccc12 [compound 107, 3-(3-chloro-benzenesulfonyl)-7-piperazin-1-yl-1H-indole] | 295 °C
10 | Cc1ccc(S(=O)(=O)c2c[nH]c3c(N4CCNCC4)cccc23)cc1 [compound 102, 7-piperazin-1-yl-3-(toluene-4-sulfonyl)-1H-indole] | 285 to 287 °C
11 | O=S(=O)(c1ccncc1)c1c[nH]c2c(N3CCNCC3)cccc12 | 207 to 208 °C
12 | O=S(=O)(c1ccccc1)c1c[nH]c2c(N3CCNCC3)cccc12 (as salt: hydrochloride) | 278 to 280 °C
13 | O=S(=O)(c1ccccn1)c1c[nH]c2cc(N3CCNCC3)ccc12 | 246.7 to 247.2 °C
14 | c1ccc(Sc2c[nH]c3ccc(N4CCNCC4)cc23)cc1 | 246 to 247 °C
15 | O=S(=O)(c1ccccc1Cl)c1c[nH]c2c(N3CCNCC3)cccc12 [compound 108, 3-(2-chloro-benzenesulfonyl)-7-piperazin-1-yl-1H-indole] | 280 to 282 °C
16 | O=S(=O)(c1ccc(F)cc1)c1c[nH]c2c(N3CCNCC3)cccc12 [compound 104, 3-(4-fluoro-benzenesulfonyl)-7-piperazin-1-yl-1H-indole] | 247 to 249 °C
17 | c1ccc(Sc2c[nH]c3c(N4CCNCC4)cccc23)cc1 | 300 °C
18 | O=S(=O)(c1ccc(Cl)cc1Cl)c1c[nH]c2c(N3CCNCC3)cccc12 [compound 106, 3-(2,4-dichloro-benzenesulfonyl)-7-piperazin-1-yl-1H-indole] | 300 °C
19 | O=S(=O)(c1ccccc1Cl)c1c[nH]c2ccc(N3CCNCC3)cc12 [compound 206, 3-(2-chloro-benzenesulfonyl)-5-piperazin-1-yl-1H-indole] | > 300 °C
20 | O=S(=O)(c1nc2ccccc2s1)c1c[nH]c2c(N3CCNCC3)cccc12 [compound 114, 2-(7-piperazin-1-yl-1H-indole-3-sulfonyl)-benzothiazole] | 295 °C
21 | O=S(=O)(c1cccc(Cl)c1)c1c[nH]c2c(C3CCNCC3)cccc12 [compound 208, 3-(3-Chloro-benzenesulfonyl)-7-piperidin-4-yl-1H-indole] | 272.3 to 272.9 °C
22 | O=S(=O)(c1cc(Cl)cc(Cl)c1)c1c[nH]c2c(N3CCNCC3)cccc12 [compound 105, 3-(3,5-dichloro-benzenesulfonyl)-7-piperazin-1-yl-1H-indole] | 290 °C
23 | O=S(=O)(c1ccccc1C(F)(F)F)c1c[nH]c2c(N3CCNCC3)cccc12 [compound 109, 7-piperazin-1-yl-3-(2-trifluoromethyl-benzenesulfonyl)-1H-indole] | 186 to 187 °C
24 | O=S(=O)(c1ccc(Cl)c(Cl)c1)c1c[nH]c2ccc(N3CCNCC3)cc12 [compound 111, 3-(3,4-dichloro-benzenesulfonyl)-5-piperazin-1-yl-1H-indole] | > 300 °C

Next, values leading:

Row | melting point | Structure (SMILES)
25 | 282 to 284.5 °C | Cn1cc(S(=O)(=O)c2cc(Cl)cc(Cl)c2)c2cc(N3CCNCC3)ccc21 [compound 411, 3-(3,5-dichloro-benzenesulfonyl)-1-methyl-5-piperazin-1-yl-1H-indole]
26 | 274 to 275 °C | CCN1CCN(c2cccc3c(S(=O)(=O)c4ccccc4)c[nH]c23)CC1 [compound 513, 3-benzenesulfonyl-7-(4-ethyl-piperazin-1-yl)-1H-indole]
27 | 185.5 to 188.5 °C | Cn1cc(S(=O)(=O)c2cccc(Cl)c2)c2cc(N3CCNCC3)ccc21 [compound 415, 3-(3-chloro-benzenesulfonyl)-1-methyl-5-piperazin-1-yl-1H-indole]
28 | 199 to 203 °C | CN1CCN(c2cccc3c(S(=O)(=O)c4ccc(Cl)cc4Cl)c[nH]c23)CC1 [compound 506, 3-(2,4-dichloro-benzenesulfonyl)-7-(4-methyl-piperazin-1-yl)-1H-indole]
29 | 235 to 240 °C | Cn1cc(S(=O)(=O)c2cccc(C(F)(F)F)c2)c2cc(N3CCNCC3)ccc21 [compound 410, 1-methyl-5-piperazin-1-yl-3-(3-trifluoromethyl-benzenesulfonyl)-1H-indole]
30 | 232 to 236 °C | Cc1[nH]c2c(N3CCNCC3)cccc2c1S(=O)(=O)c1ccc(F)cc1 [compound 603, 3-(4-fluorobenzenesulfonyl)-2-methyl-7-piperazin-1-yl-1H-indole]
31 | 290 to 295 °C | CCCN1CCN(c2cccc3c(S(=O)(=O)c4ccccc4)c[nH]c23)CC1 [compound 512, 3-benzenesulfonyl-7-(4-propyl-piperazin-1-yl)-1H-indole]
32 | 196 to 203 °C | CN1CCN(c2cccc3c(S(=O)(=O)c4ccc(Cl)c(Cl)c4)c[nH]c23)CC1 [compound 503, 3-(3,4-dichloro-benzenesulfonyl)-7-(4-methyl-piperazin-1-yl)-1H-indole]
33 | 198 to 203 °C | Cn1cc(S(=O)(=O)c2cccc(Cl)c2Cl)c2cc(N3CCNCC3)ccc21 [compound 409, 3-(2,3-dichloro-benzenesulfonyl)-1-methyl-5-piperazin-1-yl-1H-indole]
34 | 168.5 to 175.9 °C | CN1CCN(c2cccc3c(S(=O)(=O)c4ccccc4Cl)c[nH]c23)CC1 [compound 504, 3-(2-chloro-benzenesulfonyl)-7-(4-methyl-piperazin-1-yl)-1H-indole]
35 | 195 to 207 °C | Cn1cc(S(=O)(=O)c2ccc(F)cc2)c2cc(N3CCNCC3)ccc21 [compound 413, 3-(4-fluoro-benzenesulfonyl)-1-methyl-5-piperazin-1-yl-1H-indole]
36 | 256.8 to 257.5 °C | Cn1cc(S(=O)(=O)c2ccccn2)c2cc(N3CCNCC3)ccc21 [compound 416, 1-methyl-5-piperazin-1-yl-3-(pyridine-2-sulfonyl)-1H-indole]
37 | 178 to 182 °C | CN1CCC(c2cccc3c(S(=O)(=O)c4ccc(F)cc4)c[nH]c23)CC1 [compound 510, 3-(4-fluoro-benzenesulfonyl)-7-(1-methyl-piperidin-4-yl)-1H-indole]
38 | 239 to 240 °C (dec.) | Cn1cc(S(=O)(=O)c2ccccc2)c2cc(N3CCNCC3)ccc21 [compound 403, 3-benzenesulfonyl-1-methyl-5-piperazin-1-yl-1H-indole]
39 | 295 °C | Cn1cc(S(=O)(=O)c2ccccc2C(F)(F)F)c2cccc(N3CCNCC3)c21 [compound 404, 1-methyl-7-piperazin-1-yl-3-(2-trifluoromethyl-benzenesulfonyl)-1H-indole]
40 | 160 to 162 °C | CN1CCN(c2cccc3c(S(=O)(=O)c4ccccc4)c[nH]c23)CC1 (as salt: hydrochloride) [compound 501, 3-benzenesulfonyl-7-(4-methyl-piperazin-1-yl)-1H-indole]
41 | 237.1 to 241.5 °C | CN1CCN(c2cccc3c(S(=O)(=O)c4cc(Cl)cc(Cl)c4)c[nH]c23)CC1 [compound 507, 3-(3,5-dichloro-benzenesulfonyl)-7-(4-methyl-piperazin-1-yl)-1H-indole]
42 | 163 to 171 °C | CN1CCN(c2cccc3c(S(=O)(=O)c4cccc(Cl)c4)c[nH]c23)CC1 [compound 505, 3-(3-chloro-benzenesulfonyl)-7-(4-methyl-piperazin-1-yl)-1H-indole]
43 | 188 to 190 °C | Cc1[nH]c2c(N3CCNCC3)cccc2c1S(=O)(=O)c1ccccc1 [compound 601, 3-benzenesulfonyl-2-methyl-7-piperazin-1-yl-1H-indole]
44 | 182 to 184 °C | COc1ccc(S(=O)(=O)c2c(C)[nH]c3c(N4CCNCC4)cccc23)cc1 [compound 604, 3-(4-methoxybenzenesulfonyl)-2-methyl-7-piperazin-1-yl-1H-indole]
45 | 300 °C | Cn1cc(S(=O)(=O)c2cccc(Cl)c2)c2cccc(N3CCNCC3)c21 [compound 408, 3-(3-chloro-benzenesulfonyl)-1-methyl-7-piperazin-1-yl-1H-indole]
46 | 260 to 262 °C | CN1CCN(c2cccc3c(S(=O)(=O)c4ccccc4)cn(C)c23)CC1 [compound 502, 3-benzenesulfonyl-1-methyl-7-(4-methyl-piperazin-1-yl)-1H-indole]
47 | 300 °C | Cn1cc(S(=O)(=O)c2ccc(F)cc2)c2cccc(N3CCNCC3)c21 [compound 405, 3-(4-fluoro-benzenesulfonyl)-1-methyl-7-piperazin-1-yl-1H-indole]
48 | 249.6 to 253 °C | Cn1cc(S(=O)(=O)c2ccccc2Cl)c2cc(N3CCNCC3)ccc21 [compound 414, 3-(2-chloro-benzenesulfonyl)-1-methyl-5-piperazin-1-yl-1H-indole]
